These results are taken from PubChem BioAssay AID179 (DTP/NCI, 2004).

For the assay, the system named is CEM cells HIV-1 protection, formazan growth assay. Description: NCI AIDS Antiviral Assay. To be noted: for IC50: measured here: growth of uninfected CEM cells. Put shortly:
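CEM (human) cells, HIV-1 infected vs uninfected, 5-point dosing, formazan growth read-out. Retest threshold 50% protection.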

Active and inactive are the calls of the source.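 Rule for the calls: active = compounds giving half or more protection of infected cells from virus-caused growth loss, again on retest; inactive = the rest.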

Broadly, the EC50 is the concentration at which the effect is half-maximal. The IC50 is the concentration that inhibits the measured activity by half. Low values mean greater potency, high ones weaker potency. For `O=C(O)c1cc(I)cc(I)c1O`, the EC50 was > 646 µM and the half-inhibitory concentration (IC50) is 107 µM.

`NCCCc1c(-c2ccccc2)nc(N)[nH]c1=O`: the EC50 was > 200 µM and the IC50 is > 200 µM.

As to `N#CCCC1(CCC#N)CCc2ccccc2C1=O`, the EC50 is > 200 µM and the IC50 is > 200 µM.

Consider `CC(=O)OC1CC2C(C)(C)CCCC2(C)C2C(=O)C(O)=C(C(C)C)C(=O)C12` (stereo unspecified), for which the EC50 is > 200 µM and the IC50 came out at 2.82 µM.

Turning to `Cn1nc(-c2cccc(-c3nn(C)c(=NCCO)s3)n2)sc1=NCCO`, the EC50 is > 200 µM and the IC50 is > 200 µM.

In the case of `CCOC(=O)N1CCN(C(=O)Nc2cccc3ccccc23)CC1`, the result was inactive.

For `Cc1ccc(/C=N/NS(=O)(=O)c2ccccc2)c(C)c1`, the outcome was inactive.

In the case of `CC(=O)OC12C=CC(=O)N1c1ccccc1C(=O)O2` (stereo unspecified), the result was inactive.

`CC1C[C@H](C)CC(C(O)CC2CC(=O)N(Cc3ccccc3)C(=O)C2)C1O` (stereo partly specified): the EC50 was > 200 µM and the IC50 is > 200 µM.

For `CCCCCC/C=C\CCCCCCCCCC1=CC(=O)C=C(OC)C1=O`, the EC50 was > 9.55 µM and the IC50 is > 9.55 µM.

As for `CC(=O)[O][Hg][CH2]C(O)Cn1c(=O)c2c(ncn2C)n(C)c1=O` (stereo unspecified), the result was inactive.

`CC(=O)N1CCC23c4ccccc4N(C)C2CC(=O)CC13` (stereo unspecified): the EC50 was > 871 µM and the IC50 was > 871 µM.

As for `CCCCOP(=O)(OCCCC)c1ccccc1`, the EC50 was 0.0631 µM and the IC50 was > 200 µM.

On to `CC1CCCCCC(=O)c2c(O)cc(O)cc2CC(=O)O1` (stereo unspecified), for which the EC50 is > 851 µM and the IC50 came out at 117 µM.

As to `CCOc1ccc2c(C)cc(=O)oc2c1`, the EC50 was > 66.1 µM and the IC50 is > 66.1 µM.

For `CN(C)CC(/C(Cc1ccccc1)=N\NC(=O)c1ccncc1)c1ccccc1` (stereo unspecified), the EC50 was > 245 µM and the IC50 is 93.3 µM.

In the case of `CCN(CC)CCOc1ccc(/C(C#N)=C/c2ccc3ccccc3c2)cc1`, the EC50 was > 100 µM and the IC50 was determined as 0.933 µM.

Take `C=CCNC(=S)/N=C\c1c(C)[nH]n(-c2ccccc2)c1=O`: the EC50 is > 100 µM and the IC50 amounted to 95.5 µM.

For the compound `CC1(C)OP(=O)(c2ccccc2)C=C1Br` (stereo unspecified), the EC50 was > 200 µM and the IC50 was > 200 µM.

Take `COc1ccc2c(n1)Sc1nc3ccccc3nc1N2`: the EC50 was > 200 µM and the IC50 was found to be 24.5 µM.

As for `CCCCCCCCCCCCCCC1OC(=O)c2ccccc21` (stereo unspecified), the result was inactive.

For `CCN(CC)CCOC(=O)C1(CCC(C)C)CCCCC1`, the EC50 was > 200 µM and the IC50 came out at 123 µM.

`O=S(=O)(O)c1c(Cl)c(Cl)c(O)c2ncccc12`: the EC50 is > 200 µM and the half-inhibitory concentration (IC50) was determined as 1.17 µM.

As for `Cc1ccc(O)c(N=Nc2ccc(S(=O)(=O)O)cc2)n1`, the result was inactive.

In the case of `CCOC(=O)c1ccc(-n2c(SCC)nc3sc(C)c(C)c3c2=O)cc1`, the EC50 was > 200 µM and the IC50 was > 200 µM.

Take `NC1=N/N=C(c2ccccc2)\C=C/C(c2ccccc2)=N\1`: the EC50 was > 19.1 µM and the IC50 was > 19.1 µM.

With `COc1c2occc2c(OC)c2c(=O)c(S(=O)(=O)NC(=O)Nc3ccc(Cl)cc3)coc12`, the EC50 is > 200 µM and the IC50 came to 97.7 µM.

`O=C(N/C(=C\c1ccc([N+](=O)[O-])cc1)c1nc2ccccc2[nH]1)c1ccccc1`: the EC50 is > 35.5 µM and the IC50 is > 35.5 µM.

Take `CC12CCc3ccccc3C1=NNC(=O)C2` (stereo unspecified): the EC50 is > 170 µM and the IC50 is > 170 µM.

For the compound `CCOP(=O)(OCC)/C(C#N)=C/c1ccccc1O`, the EC50 was > 891 µM and the half-maximal inhibitory concentration (IC50) is > 891 µM.

As to `CO/N=C1/c2sccc2[C@H](NC(=O)C(Cc2ccccc2)NC(=O)OC(C)(C)C)[C@@H]1O` (stereo partly specified), the EC50 was > 200 µM and the half-maximal inhibitory concentration (IC50) was > 200 µM.

With `Cc1ccc(S(=O)(=O)N/N=C2\CC3C4CCC3C2C4)cc1` (stereo unspecified), the EC50 is > 200 µM and the IC50 is > 200 µM.

For the compound `N#Cc1c2c(c(Nc3ccc(F)cc3)n3c1nc1ccccc13)CCCC2`, the EC50 was > 200 µM and the half-maximal inhibitory concentration (IC50) turned out to be 81.3 µM.

Regarding `Nc1ccn(CCNCCn2cnc3nc(N)[nH]c(=O)c32)c(=O)n1`, the EC50 is > 8.32 µM and the IC50 is > 8.32 µM.

Consider `CCOP(=O)(OCC)/C(C#N)=C/c1ccccc1`, for which the EC50 is > 676 µM and the IC50 was > 676 µM.

For the compound `CCOC(=O)c1cc2ccccc2cc(C(=O)OCC)c1=O`, the EC50 was > 200 µM and the half-maximal inhibitory concentration (IC50) was determined as 34.7 µM.

As for `CCCC(=O)Sc1ccccc1C(=O)Nc1ccc(S(=O)(=O)NC(C)=O)cc1`, the concentration giving a half-maximal response (EC50) is 28.2 µM and the IC50 was determined as 112 µM.

For the compound `Cc1nc(C(N)=S)sc1C(/C=C/c1ccc(Cl)c(Cl)c1)=N/NC(C)(C)C`, the EC50 is > 117 µM and the IC50 is > 117 µM.

In the case of `CC1=CC(C)C(=O)N(CC(C)N2CCCC2)C(C)=C1` (stereo unspecified), the EC50 was > 191 µM and the half-maximal inhibitory concentration (IC50) was 74.1 µM.

Turning to `CCOC(=O)C1CCCc2sc(N)c(C#N)c21` (stereo unspecified), the EC50 is > 200 µM and the IC50 is > 200 µM.

As for `CC1=NN(C(=O)CC(=O)Nc2ccccc2Cl)C(=O)C1N=Nc1ccc(C(=O)O)cc1` (stereo unspecified), the EC50 was > 200 µM and the IC50 was 81.3 µM.

Consider `O=C1CSC(/C(=N/Nc2ccccc2)c2nc3ccccc3[nH]2)=N1`, for which the EC50 was > 15.5 µM and the IC50 is > 15.5 µM.

Regarding `FC(F)(F)c1nc(Cl)c2ncsc2n1`, the EC50 is > 200 µM and the IC50 worked out at 2.4 µM.

Take `O=C1NC2(CCCC2)C(=O)C12CCCC2`: the outcome was inactive.

In the case of `O=C1OCc2cc[n+]([O-])cc21`, the EC50 is > 1660 µM and the IC50 was > 1660 µM.

As to `CCOC(=O)C1C2CCC(C2=C(c2ccccc2)c2ccccc2)C1C(=O)O` (stereo unspecified), the EC50 is > 234 µM and the half-inhibitory concentration (IC50) stood at 102 µM.

Take `COC(=O)N(CO)CO`: the EC50 is > 200 µM and the IC50 is > 200 µM.

As to `O=c1oc2ccccc2c(O)c1-c1cccc2ccccc12`, the outcome was inactive.

On to `COC(=O)c1cc(Br)c(C(=O)C(Cl)(Cl)Cl)[nH]1`, for which the EC50 is > 200 µM and the IC50 was > 200 µM.

Consider `COC(=O)c1cc(C(=O)c2cc(C(=O)OC)c(OC)c(Br)c2C)c(C)c(Br)c1OC`, for which the EC50 is > 200 µM and the IC50 is > 200 µM.

For `COc1ccccc1NC(=O)C(/C=N/C(=S)NCCNc1ccc(OC)c(OC)c1)=C(\C)O`, the EC50 was > 200 µM and the IC50 amounted to 51.3 µM.

As to `CCOC(=O)C1C(=O)CC1(C)C` (stereo unspecified), the EC50 was > 200 µM and the concentration for half-maximal inhibition (IC50) is > 200 µM.

Take `O=C1CCC/C1=C1/SS/C(=C2/CCCC2=O)S1`: the EC50 is > 200 µM and the IC50 stood at 102 µM.

For `COc1cccc2c(=O)oc(-c3ccccc3C)nc12`, the EC50 is > 200 µM and the IC50 is 45.7 µM.

Consider `Nc1ccn(C2CC(F)C(CO)S2)c(=O)n1` (stereo unspecified), for which the EC50 is > 25.1 µM and the half-maximal inhibitory concentration (IC50) is > 25.1 µM.

Take `CCOC(=O)c1nc2cc(C(F)(F)F)ccc2nc1Nc1ccc(OC)cc1`: the EC50 was > 126 µM and the IC50 is > 126 µM.

With `O=C1CSC(c2cccc(Cl)c2)N1N1C(=O)CSC1c1cccc(Cl)c1` (stereo unspecified), the EC50 is > 200 µM and the 50% inhibitory concentration (IC50) is 66.1 µM.
